Results from PubChem BioAssay AID256 (DTP/NCI, 2004).
Values joined by “and” are separate entries in the source; they are usually repeats but may differ in a detail not shown here. Equal entries are not always repeated. Toxic doses and inconclusive results are not listed. Rule for the calls: active = survival T/C of 150% or more; inactive = T/C below 125% in these data.

Tested on: CD2F1 mice, L1210 leukemia ip, survival T/C
Assay: NCI In Vivo Anticancer Drug Screen. Data for tumor model L1210 Leukemia (intraperitoneal) in CD2F1 (CDF1) mice
Conditions: higher = longer survival
Procedure, shortened: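 Compound-dosed mice with transplantable tumor versus matched vehicle controls; endpoint ratio T/C reported.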

Measured: T/C

O=NN(CCCl)C(=O)NCCCl
inactive: endpoint: mean survival time, dose: 3.75 mg/kg/injection, schedule: Q01DX001 (ip), vehicle: distilled water + alcohol 115 % of control | endpoint: mean survival time, dose: 3.75 mg/kg/injection, schedule: Q01DX001 (ip), vehicle: saline + alcohol 114 % of control | endpoint: mean survival time, dose: 4.0 mg/kg/injection, schedule: Q01DX001 (ip), vehicle: saline + alcohol 113 % of control and 115 % of control | endpoint: mean survival time, dose: 5.0 mg/kg/injection, schedule: Q01DX001 (ip), vehicle: saline 113 % of control | endpoint: mean survival time, dose: 6.25 mg/kg/injection, schedule: Q01DX001 (ip), vehicle: saline + alcohol 119 % of control and 120 % of control | endpoint: mean survival time, dose: 7.5 mg/kg/injection, schedule: Q01DX001 (ip), vehicle: distilled water + alcohol 123 % of control | endpoint: median survival time, dose: 0.9 mg/kg/injection, schedule: Q01DX009 (ip), vehicle: saline + alcohol 116 % of control and 122 % of control | endpoint: median survival time, dose: 24.0 mg/kg/injection, schedule: Q01DX009 (ip), vehicle: saline + alcohol 124 % of control | endpoint: median survival time, dose: 80.0 mg/kg/injection, schedule: Q01DX001 (ip), vehicle: Klucel (hydroxypropylcellulose) (HPC) 117 % of control | endpoint: median survival time, dose: 80.0 mg/kg/injection, schedule: Q01DX001 (ip), vehicle: saline 123 % of control
active: endpoint: mean survival time, dose: 2.0 mg/kg/injection, schedule: Q01DX009 (ip), vehicle: other 177 % of control and 293 % of control | endpoint: mean survival time, dose: 3.8 mg/kg/injection, schedule: Q01DX001 (ip), vehicle: Klucel (hydroxypropylcellulose) (HPC) 150 % of control | endpoint: mean survival time, dose: 4.0 mg/kg/injection, schedule: Q01DX009 (ip), vehicle: other 201 % of control and 255 % of control | endpoint: mean survival time, dose: 4.0 mg/kg/injection, schedule: Q04DX003 (ip), vehicle: saline + alcohol 189 % of control | endpoint: mean survival time, dose: 7.5 mg/kg/injection, schedule: Q01DX001 (ip), vehicle: Klucel (hydroxypropylcellulose) (HPC) 164 % of control | endpoint: mean survival time, dose: 8.0 mg/kg/injection, schedule: Q01DX009 (ip), vehicle: other 183 % of control | endpoint: mean survival time, dose: 8.0 mg/kg/injection, schedule: Q04DX003 (ip), vehicle: saline + alcohol 230 % of control | endpoint: mean survival time, dose: 9.4 mg/kg/injection, schedule: Q01DX001 (ip), vehicle: saline + alcohol 156 % of control and 197 % of control | endpoint: mean survival time, dose: 10.0 mg/kg/injection, schedule: Q01DX001 (ip), vehicle: DMSO 158 % of control | endpoint: mean survival time, dose: 12.5 mg/kg/injection, schedule: Q01DX001 (ip), vehicle: saline + alcohol 152 % of control and 188 % of control and 212 % of control | endpoint: mean survival time, dose: 14.0 mg/kg/injection, schedule: Q01DX001 (ip), vehicle: saline 171 % of control | endpoint: mean survival time, dose: 14.0 mg/kg/injection, schedule: Q07DX003 (ip), vehicle: saline + alcohol 330 % of control | endpoint: mean survival time, dose: 14.0 mg/kg/injection, schedule: Q11HX001 (ip), vehicle: saline 171 % of control | endpoint: mean survival time, dose: 14.22 mg/kg/injection, schedule: Q01DX001 (ip), vehicle: saline + alcohol 172 % of control | endpoint: mean survival time, dose: 15.0 mg/kg/injection, schedule: Q01DX001 (ip), vehicle: Klucel (hydroxypropylcellulose) (HPC) 332 % of control | endpoint: mean survival time, dose: 15.0 mg/kg/injection, schedule: Q01DX001 (ip), vehicle: saline 172 % of control and 248 % of control | endpoint: mean survival time, dose: 16.0 mg/kg/injection, schedule: Q01DX001 (ip), vehicle: other 150 % of control | endpoint: mean survival time, dose: 16.0 mg/kg/injection, schedule: Q04DX003 (ip), vehicle: saline + alcohol 273 % of control | endpoint: mean survival time, dose: 18.8 mg/kg/injection, schedule: Q01DX001 (ip), vehicle: saline + alcohol 319 % of control | endpoint: mean survival time, dose: 20.0 mg/kg/injection, schedule: Q01DX001 (ip), vehicle: DMSO 270 % of control | endpoint: mean survival time, dose: 20.0 mg/kg/injection, schedule: Q01DX001 (ip), vehicle: Klucel (hydroxypropylcellulose) (HPC) 300 % of control | endpoint: mean survival time, dose: 20.0 mg/kg/injection, schedule: Q01DX001 (ip), vehicle: other 169 % of control | endpoint: mean survival time, dose: 20.0 mg/kg/injection, schedule: Q11HX001 (ip), vehicle: saline 198 % of control | endpoint: mean survival time, dose: 21.3 mg/kg/injection, schedule: Q01DX001 (ip), vehicle: saline + alcohol 248 % of control | endpoint: mean survival time, dose: 25.0 mg/kg/injection, schedule: Q01DX001 (ip), vehicle: saline + alcohol 335 % of control | endpoint: mean survival time, dose: 30.0 mg/kg/injection, schedule: Q01DX001 (ip), vehicle: distilled water + alcohol 196 % of control | endpoint: mean survival time, dose: 30.0 mg/kg/injection, schedule: Q01DX001 (ip), vehicle: saline 232 % of control | endpoint: mean survival time, dose: 30.0 mg/kg/injection, schedule: Q11HX001 (ip), vehicle: saline 232 % of control | endpoint: mean survival time, dose: 32.0 mg/kg/injection, schedule: Q01DX001 (ip), vehicle: other 246 % of control | endpoint: mean survival time, dose: 32.0 mg/kg/injection, schedule: Q01DX001 (ip), vehicle: saline 287 % of control | endpoint: mean survival time, dose: 33.0 mg/kg/injection, schedule: Q07DX003 (ip), vehicle: saline + alcohol 323 % of control | endpoint: mean survival time, dose: 40.0 mg/kg/injection, schedule: Q01DX001 (ip), vehicle: Klucel (hydroxypropylcellulose) (HPC) 311 % of control | endpoint: mean survival time, dose: 40.0 mg/kg/injection, schedule: Q01DX001 (ip), vehicle: other 311 % of control | endpoint: mean survival time, dose: 45.0 mg/kg/injection, schedule: Q01DX001 (ip), vehicle: saline 179 % of control | endpoint: mean survival time, dose: 45.0 mg/kg/injection, schedule: Q11HX001 (ip), vehicle: saline 180 % of control | endpoint: mean survival time, dose: 50.0 mg/kg/injection, schedule: Q01DX001 (ip), vehicle: saline + alcohol 291 % of control | endpoint: mean survival time, dose: 56.25 mg/kg/injection, schedule: Q01DX001 (ip), vehicle: saline + alcohol 252 % of control | endpoint: mean survival time, dose: 60.0 mg/kg/injection, schedule: Q01DX001 (ip), vehicle: distilled water + alcohol 222 % of control | endpoint: mean survival time, dose: 80.0 mg/kg/injection, schedule: Q01DX001 (ip), vehicle: saline + alcohol 168 % of control | endpoint: median survival time, dose: 1.75 mg/kg/injection, schedule: Q01DX009 (ip), vehicle: saline + alcohol 156 % of control | endpoint: median survival time, dose: 1.8 mg/kg/injection, schedule: Q01DX009 (ip), vehicle: saline + alcohol 169 % of control | endpoint: median survival time, dose: 3.0 mg/kg/injection, schedule: Q01DX009 (ip), vehicle: saline + alcohol 172 % of control | endpoint: median survival time, dose: 3.5 mg/kg/injection, schedule: Q01DX009 (ip), vehicle: saline + alcohol 182 % of control and 241 % of control and 246 % of control | endpoint: median survival time, dose: 5.0 mg/kg/injection, schedule: Q04DX003 (ip), vehicle: saline + alcohol 152 % of control | endpoint: median survival time, dose: 6.0 mg/kg/injection, schedule: Q01DX009 (ip), vehicle: saline + alcohol 256 % of control | endpoint: median survival time, dose: 7.0 mg/kg/injection, schedule: Q01DX009 (ip), vehicle: saline + alcohol 218 % of control and 259 % of control | endpoint: median survival time, dose: 8.0 mg/kg/injection, schedule: Q01DX001 (ip), vehicle: saline + alcohol 153 % of control | endpoint: median survival time, dose: 10.0 mg/kg/injection, schedule: Q01DX001 (ip), vehicle: Klucel (hydroxypropylcellulose) (HPC) 171 % of control and 197 % of control | endpoint: median survival time, dose: 10.0 mg/kg/injection, schedule: Q01DX001 (ip), vehicle: saline + alcohol 156 % of control and 178 % of control | endpoint: median survival time, dose: 10.0 mg/kg/injection, schedule: Q01DX009 (ip), vehicle: saline 176 % of control | endpoint: median survival time, dose: 10.0 mg/kg/injection, schedule: Q03DX003 (ip), vehicle: DMSO 294 % of control | endpoint: median survival time, dose: 10.0 mg/kg/injection, schedule: Q04DX003 (ip), vehicle: saline + alcohol 188 % of control | endpoint: median survival time, dose: 11.5 mg/kg/injection, schedule: Q01DX001 (ip), vehicle: saline + alcohol 165 % of control | endpoint: median survival time, dose: 12.0 mg/kg/injection, schedule: Q01DX009 (ip), vehicle: saline + alcohol 168 % of control | endpoint: median survival time, dose: 14.0 mg/kg/injection, schedule: Q01DX009 (ip), vehicle: saline + alcohol 158 % of control and 162 % of control and 185 % of control | endpoint: median survival time, dose: 14.0 mg/kg/injection, schedule: Q07DX003 (ip), vehicle: saline + alcohol 273 % of control | endpoint: median survival time, dose: 14.4 mg/kg/injection, schedule: Q01DX001 (ip), vehicle: saline + alcohol 152 % of control and 157 % of control | endpoint: median survival time, dose: 15.0 mg/kg/injection, schedule: Q01DX009 (ip), vehicle: saline 164 % of control | endpoint: median survival time, dose: 16.0 mg/kg/injection, schedule: Q01DX001 (ip), vehicle: saline + alcohol 255 % of control | endpoint: median survival time, dose: 19.2 mg/kg/injection, schedule: Q01DX001 (ip), vehicle: saline + alcohol 192 % of control | endpoint: median survival time, dose: 20.0 mg/kg/injection, schedule: Q01DX001 (ip), vehicle: Klucel (hydroxypropylcellulose) (HPC) 226 % of control and 234 % of control | endpoint: median survival time, dose: 24.0 mg/kg/injection, schedule: Q01DX001 (ip), vehicle: saline + alcohol 152 % of control and 186 % of control | endpoint: median survival time, dose: 32.0 mg/kg/injection, schedule: Q01DX001 (ip), vehicle: saline + alcohol 186 % of control | endpoint: median survival time, dose: 40.0 mg/kg/injection, schedule: Q01DX001 (ip), vehicle: Klucel (hydroxypropylcellulose) (HPC) 343 % of control | endpoint: median survival time, dose: 40.0 mg/kg/injection, schedule: Q04DX003 (ip), vehicle: saline + alcohol 164 % of control | endpoint: median survival time, dose: 66.7 mg/kg/injection, schedule: Q01DX001 (ip), vehicle: saline + alcohol 179 % of control and 184 % of control | endpoint: median survival time, dose: 160.0 mg/kg/injection, schedule: Q01DX001 (ip), vehicle: Klucel (hydroxypropylcellulose) (HPC) 168 % of control

O=C(C1CO1)C(Cl)(Cl)Cl (stereo not given)
inactive: endpoint: median survival time, dose: 12.0 mg/kg/injection, schedule: Q01DX009 (ip), vehicle: saline 111 % of control | endpoint: median survival time, dose: 25.0 mg/kg/injection, schedule: Q01DX009 (ip), vehicle: saline 108 % of control | endpoint: median survival time, dose: 50.0 mg/kg/injection, schedule: Q01DX009 (ip), vehicle: saline 117 % of control
